{"source": "paper PMC7513592", "about": "(RSC Medicinal Chemistry, 2020)", "key": {"[1]": {"target": "T1, hTRPV1 (Homo sapiens, UniProt Q8NER1)", "T1 construct": "expressed in transfected cells; host or cells: HEK293T / HEK293, transient", "T1 sequence (Q8NER1 whole entry)": "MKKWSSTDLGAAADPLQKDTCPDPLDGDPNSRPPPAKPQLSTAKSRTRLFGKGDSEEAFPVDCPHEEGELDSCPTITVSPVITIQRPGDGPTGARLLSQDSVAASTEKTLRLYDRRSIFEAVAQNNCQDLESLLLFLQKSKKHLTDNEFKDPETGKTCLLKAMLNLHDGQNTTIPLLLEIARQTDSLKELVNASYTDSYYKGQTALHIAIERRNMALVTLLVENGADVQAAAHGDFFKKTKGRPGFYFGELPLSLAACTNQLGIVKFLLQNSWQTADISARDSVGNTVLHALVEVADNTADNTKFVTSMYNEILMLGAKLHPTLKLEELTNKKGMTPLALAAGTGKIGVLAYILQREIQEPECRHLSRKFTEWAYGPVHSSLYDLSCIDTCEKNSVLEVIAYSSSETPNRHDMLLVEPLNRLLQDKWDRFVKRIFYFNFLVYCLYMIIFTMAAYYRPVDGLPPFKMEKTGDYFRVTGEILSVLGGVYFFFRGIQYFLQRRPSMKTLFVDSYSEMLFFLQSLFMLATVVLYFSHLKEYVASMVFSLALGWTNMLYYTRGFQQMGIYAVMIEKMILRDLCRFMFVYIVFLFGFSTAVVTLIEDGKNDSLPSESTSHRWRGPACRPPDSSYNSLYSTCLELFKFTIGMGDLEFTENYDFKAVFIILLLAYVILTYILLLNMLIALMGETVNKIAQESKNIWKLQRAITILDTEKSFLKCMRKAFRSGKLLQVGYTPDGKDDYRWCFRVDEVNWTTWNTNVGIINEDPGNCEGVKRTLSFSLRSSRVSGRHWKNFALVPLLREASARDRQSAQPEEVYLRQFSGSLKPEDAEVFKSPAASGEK", "experiment": "TRPV1 FLIPR assay: capsaicin-activated Ca2+ influx in HEK-hTRPV1 cells", "assay_type": "cell-based", "method": "hTRPV1 activity was measured using HEK293T cells transiently overexpressing TRPV1 as previously reported.6 Briefly, HEK293 cell were trypsinized and plated at 1.5 x10^4 cells/well onto Corning® 96-well black polystyrene clear bottom microplates (CLS3603 Sigma-Aldrich) coated with 100 μg/mL poly-D-lysine (P6407 Sigma-Aldrich) using 100 μL phenol-red free DMEM with 10% FBS and 2mM glutamine without antibiotics. Cells were incubated at 37 °C for 24 h. On the following day, transfection was performed using 200 ng of pcDNA 3.1 hTRPV1 and 0.6 μL Lipofectamine 2000 reagent/well. 24 h after the transfection, the medium was replaced with 90 µL of loading buffer (modified Krebs buffer containing 117 mM NaCl, 4.8 mM KCl, 1 mM MgCl2, 5 mM D-glucose, 10 mM HEPES, 1.8 mM CaCl2 and calcium-5 fluorescence dye (50 µL/mL loading buffer)). Cells were incubated in the loading buffer at 37 °C for 1 h in dark. Fluorescence Ca2+ measurements were carried out using FLIPR TETRA high-throughput, fluorescence microplate reader as described before. Stable baselines were established for 50 s before 10 µL of a 10X solution of compound 39 or the TRPV1-inhibitor capsazepine (CPZ) prepared in 1.8 mM CaCl2-containing Krebs buffer was robotically administered to the cells. Cells were incubated and fluorescence was monitored in the presence of compound for an additional 5 min before administration of the agonist in 1.8 mM CaCl2-containing Krebs buffer (final concentration of capsaicin in the assay plate was 100 nM). The activity of TRPV1 was measured by quantifying the area under the curve (AUC) of the fluorescence intensity, following administration of the agonist.\nThe current HEK-hTRPV1 method employs a constant concentration of Ca2+ (1.8 mM) in the assay buffer during the whole experiment. […]\nof capsaicin (100 nM) the channel was activated and a high influx of Ca2+ was immediately recorded. The activation of the TRPV1 channel is supposed to occur through displacement of lipids in the transmembrane domain. […]\nFig S2. […] Quantification […]"}, "[2]": {"system": "HEK293 wt cells", "experiment": "Cadmium toxicity XTT assay, HEK293 wt", "assay_type": "cell-based, human", "conditions": "10 μM or 1 μM, 24 h"}}, "note": "“Also recorded” adds a separate entry of the source.", "data": [{"smiles": "O=c1ccc(CN2CCN([C@H]3CC[C@@](O)(c4cccc(C(F)(F)F)c4)CC3)CC2)c[nH]1", "note": "[compound 39]", "values": [{"measurement": "inhibition at 10 µM", "setting": "[1]; 100 nM capsaicin, read-out: inhibition of Ca2+ influx through capsaicin-activated hTRPV1", "value": 2, "unit": "%"}, {"measurement": "activation or inhibition of TRPV1", "setting": "[1]; 10 µM", "value": "lack of activity on TRPV1; also recorded: did not activate nor inhibit"}, {"measurement": "effect on Cd2+ sensitivity", "setting": "[2]", "value": "no effect"}]}]}
